{"source": "patent US20250332279A1", "about": "“PHARMACEUTICAL COMPOSITION AND METHOD FOR TREATING GLIOBLASTOMAS” (National Cheng Kung University, priority 2024, published 2025)", "tested_on": "U87MG intracranial brain tumors", "assay": "In vivo antitumor efficiency of gene silencing-enhanced radiotherapy", "design": "species or system mice", "procedure": "For the animal experiments, luciferase expression plasmid-transfected U87MG cell-implanted pathogen-free male NU/NU mice (5-7 weeks old, 20-25 g, from BioLASCO, Taiwan) were employed in this study. U87MG cells were cultured at 37° C. with 5% CO2 in M EM with 10% fetal bovine serum and 1% penicillin/streptomycin (Invitrogen). Mice were anaesthetized with 2% isoflurane gas and immobilized on a stereotactic frame to implant U87MG cells. A sagittal incision in the skin overlying the calvarium was created. U87MG cell implantation was performed by creating a hole in the exposed cranium 1.5 mm anterior and 2 mm lateral to the bregma using a 27G needle. A total volume of 5 μL of U87MG cell suspension (1×10^5 cell/μL) was injected at a depth of 3 mm from the brain surface over a 5 min period. The needle was withdrawn over 2 min. MRI was performed to monitor brain tumor growth for 7 days after tumor cell implantation.\nThe details of the CE D procedure are as described in our previous study. Briefly, infusion cannulas were fabricated with silica tubing (Polymicro Technologies, Phoenix, AZ, USA) fused to a 0.1 mL syringe (Plastic One, Roanoke, VA, USA) with a 0.5 mm stepped-tip needle that protruded from the silica guide base. The treatment agents (VLPs or drugs) were loaded into the syringes and attached to a microinfusion pump (Bioanalytical Systems, Lafayette, IN, USA). The syringe with a silica cannula was mounted onto a stereotactic holder and then lowered through a puncture hole made in the skull to the implanted tumor. The sample solution was infused at a rate of 1 μL/min until a volume of 5 μL had been delivered, and the cannula was removed 2 min later.\nAll animal experiments were approved by the Animal Committee of Chang Gung University and adhered to the experimental animal care guidelines (IACUC NO. CGU106-036). Mice were raised in a room with a thermostat at 26° C. Nu/Nu mice weighing approximately 25-30 g (5-6 weeks old) were tested to confirm the efficacy of the proposed approach. Intracranial brain tumors were induced by transplantation of U87MG cells into mouse brains. Briefly, cultured U87MG cells (5×10^5 cells/mouse) were injected over a 2 min period into the brain using a syringe, and needle withdrawal was conducted over another period of 0.5 min. A total of 50 mice were used, and the experiments were divided into five groups. In Group 1 (n=10), the mice received no further treatment after transplantation of U87MG cells, and these mice served as the control. In Group 2 (n=10), the mice received TrQβ VLPs (5 μM) via CED infusion two times (every 7 days) after 7 days of U87MG cell transplantation. […] The intracranial tumor volume in mice was measured by MR imaging. The survival time was calculated from the day of U87MG cell inoculation (0 day) to the day of death. […]", "key": {"[1]": {"conditions": "CED infusion followed by 2Gy X-ray irradiation"}}, "data": [{"smiles": "N.N.O=C([O-])C1(C(=O)[O-])CCC1.[Pt+2]", "note": "[carboplatin]", "values": [{"measurement": "median survival", "setting": "[1]", "result": 51, "unit": "days"}, {"measurement": "mice survived over 54 days", "setting": "[1]", "result": 10, "unit": "%"}, {"measurement": "tumor volume by MRI", "setting": "Day 34, CED infusion followed by 2Gy X-ray irradiation", "result": "18.9±17.8", "unit": "mm3"}, {"measurement": "tumor volume by MRI", "setting": "Day 41, CED infusion followed by 2Gy X-ray irradiation", "result": "55.2±36.5", "unit": "mm3"}]}]}
